A short description of data set [1]: Equilibrium solubility in HBSS* buffer (HPLC-UV). The class given is physicochemical. Conditions: HEPES buffered HBSS (HBSS*) buffer, pH 7.4, 37°C, mean ± SD, N = 3. On the procedure:
The mobile phases (MP) consisted of ultra-pure water containing 0.1% trifluoroacetic acid (MP A) and acetonitrile containing 0.1% trifluoroacetic acid (MP B). A reversed-phase column (Nova-Pak® C18, 4 μm, 3.9 × 150 mm, Waters, Milford, MA, United States) was applied and maintained at 22°C. The flow was constant at 0.6 mL ⋅ min^−1 with an isocratic elution of 40% MP A and 60% MP B for 53B, 55B, and 57B, an isocratic elution of 30% MP A and 70% MP B with a constant flow of 0.8 mL ⋅ min^−1 for MMTC, and an isocratic elution of 60% MP A and 40% MP B with a constant flow of 0.6 mL ⋅ min^−1 for […]. Samples of 20 μL, maintained at 25°C, were injected and all five compounds were measured at 270 nm. […] The calibration curves ranged from 5 to 30 µM for MMTC and 53B and from 7.5 to 30 µM for 54F, 55B, and 57B. Linear regression of peak height as a function of concentration was analyzed using GraphPad Prism 9.4.1.
The 5 mL vials were then left on a rotator covered in aluminum foil at 37°C. After 72 h rotation, the solutions were equally distributed into three 1.5 mL microtubes, to do triplicate measurements, and centrifuged at 10,000 g at room temperature for 10 min. The supernatant was removed and for 53B, 54F, and 57B the supernatant was diluted 1:2 with their respective mobile phases. For MMTC and 55B, the supernatant was diluted 2:1 with their respective mobile phase. The diluted samples were analyzed by HPLC-UV as described in Section 2.4.
For the quantification of MMTC, 53B, 54F, 55B, and 57B a linear regression was made of each of the calibration curves, where the known concentrations were plotted as a function of the peak height.

Data set [2] concerns the target T1, SNAT2 (Homo sapiens, UniProt Q96QD8).
T1 construct: endogenous in cells; host or cells: PC-3 cells (ECACC 90,112,714), 24 h in hyperosmotic medium
T1 sequence (Q96QD8 1-506): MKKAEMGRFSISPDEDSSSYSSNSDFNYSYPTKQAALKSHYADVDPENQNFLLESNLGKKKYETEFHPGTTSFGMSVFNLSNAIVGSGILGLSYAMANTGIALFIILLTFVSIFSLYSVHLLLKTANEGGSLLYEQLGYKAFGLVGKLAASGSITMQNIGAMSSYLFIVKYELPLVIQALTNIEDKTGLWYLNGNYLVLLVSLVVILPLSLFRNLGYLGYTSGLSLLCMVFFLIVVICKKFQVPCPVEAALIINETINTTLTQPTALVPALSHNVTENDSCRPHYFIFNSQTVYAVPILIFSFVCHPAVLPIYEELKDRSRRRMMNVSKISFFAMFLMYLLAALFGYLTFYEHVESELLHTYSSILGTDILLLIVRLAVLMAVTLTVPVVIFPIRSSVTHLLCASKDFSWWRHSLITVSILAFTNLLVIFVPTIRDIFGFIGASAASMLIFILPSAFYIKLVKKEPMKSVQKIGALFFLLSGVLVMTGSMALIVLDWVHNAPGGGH
Briefly: 3H-Gly uptake in hyperosmotically treated PC-3 cells. The class given is cell-based. Conditions: for Inhibition of 3H-Gly uptake (overall finding, in words): concentration not given, 54F at the highest soluble concentration. On the procedure:
PC-3 cells (ECACC 90,112,714) were obtained from the European Collection of Authenticated Cell Cultures (ECACC; UK Health Security Agency, Salisbury, United Kingdom) and were received in passage 31. […] The cells were kept incubated at 37°C in an atmosphere of 5% CO2 and 94%–97% relative humidity and the culture medium was changed every 2–3 days. For hyperosmotic stimulation, PC-3 cells were incubated in hyperosmotic media for 24 h before the uptake experiment. The hyperosmotic media was made by supplementing normal isoosmotic culture medium with 200 mM raffinose to reach an osmolality of approximately 500 mOsm ⋅ kg^−1. For uptake studies, the PC-3 cells were seeded in 24-well plates (area of 1.9 cm^2) at a density of 1.5 ⋅ 10^5 cells ⋅ cm^−2 2 days before the experiment. Experiments were performed using PC-3 cells in passages 2–15 after thawing.
Hyperosmotically treated PC-3 cells were used to study the uptake of radiolabeled ^3H-Gly. Solutions were prepared using Hanks Balanced Salt Solution (HBSS), which consisted of the following (mM): CaCl2, 1.26; MgCl2, 0.49; MgSO4, 0.41; KCl, 5.33; KH2PO4, 0.44; NaCl, 138; Na2HPO4, 0.34; D-glucose, 5.56; NaHCO3, 4.17. HBSS was supplemented with 10 mM HEPES and adjusted to pH 7.4 ± 0.01 (HBSS*) with […]. Donor solutions contained 0.5 μCi/mL of ^3H-glycine (11.1 nM). MMTC was also investigated at a substrate concentration of 100 µM Gly, which was achieved by the addition of unlabeled Gly to donor solutions containing 0.5 μCi/mL of ^3H-Gly (11.1 nM). […] Before starting the uptake experiment the media was aspirated, and the cells were preincubated in HBSS* for 15 min at 37°C and 220 rpm. To initiate the uptake study, the buffer was removed and 300 µL of prewarmed (37°C) donor solution was added to the cells and incubated at 37°C. During incubation, the cells were circularly rotated at 220 rpm using a Talboys incubating microplate shaker (Troemner, Thorofare, NJ, United States). After 5 min, the uptake experiment was terminated by removing the buffer solutions by vacuum suction, and the cells were washed thrice with 500 µL ice-cold HBSS. […] The cells were then detached by applying 200 µL of 0.1% Triton-X 100 for at least 25 min and cells were then transferred to scintillation vials along with 2 mL of Ultima Gold scintillation fluid. The vials were vortexed before being analyzed by a liquid scintillation counter, which was a TriCarb 4910 TR from PerkinElmer (Waltham, MA, United States).
^3H-Gly uptake values were normalized to the control uptake of each experiment, but without subtracting any background uptake.
Statistical differences were tested in GraphPad Prism 9.4.1 using one-way ANOVA followed by Dunnett’s multiple comparison test. The significance level used was p < 0.05 (*). Data are represented as means ± SEM from independent cell passages (n) unless otherwise stated.

Data set [3] deals with PC-3 cells. The arrangement: method as in Nielsen et al., 2022. Conditions: ref Nielsen et al., 2022, read-out: Km of uptake; cited from earlier work.
The nature of data set [4]: Kinetic solubility of MMTC diluted from DMSO stock into HBSS*. The class given is physicochemical. Conditions: HBSS* buffer, 37°C. On the procedure:
Quantification of compounds was performed using a Waters 2695 HPLC system (Waters Corporation, MA, United States) connected to a Waters 2487 Dual λ Absorbance Detector (Waters Corporation, MA, United States). The mobile phases (MP) consisted of ultra-pure water containing 0.1% trifluoroacetic acid (MP A) and acetonitrile containing 0.1% trifluoroacetic acid (MP B). A reversed-phase column (Nova-Pak® C18, 4 μm, 3.9 × 150 mm, Waters, Milford, MA, United States) was applied and maintained at 22°C. The flow was constant at 0.6 mL ⋅ min^−1 with an isocratic elution of 40% MP A and 60% MP B for 53B, 55B, and 57B, an isocratic elution of 30% MP A and 70% MP B with a constant flow of 0.8 mL ⋅ min^−1 for MMTC, and an isocratic elution of 60% MP A and 40% MP B with a constant flow of 0.6 mL ⋅ min^−1 for […]. Samples of 20 μL, maintained at 25°C, were injected and all five compounds were measured at 270 nm. MMTC, 53B, 54F, 55B, and 57B had retention times of 4.00, 2.47, 5.14, 2.92, and 4.00 min, respectively. […] Linear regression of peak height as a function of concentration was analyzed using GraphPad Prism 9.4.1. […]
The 5 mL vials were then left on a rotator covered in aluminum foil at 37°C. […] The diluted samples were analyzed by HPLC-UV as described in Section 2.4. […]

In data set [5] the test system is ASCT2. The arrangement: method as in Schulte et al., 2016; Schulte et al., 2018. Conditions: HEK293 cells, ref Schulte et al., 2016, 2018; cited from earlier work.
Setting [6] is: at soluble conditions / within soluble concentration range.

Structures are written as SMILES. Converted amounts (≈) assume the structure as drawn. Where a name gives a salt, the structure may show the parent alone. Read-outs that look alike come from different tables or passages of the source. Bounds are passed on as bounds.

With `Cc1ccccc1Nc1c(-c2ccc(N3CCOCC3)cc2)nc2cnccn12` [53B], the thermodynamic solubility in data set [1] (aqueous buffer) came out at 24.9 ± 0.8 µM (≈ 9.6 µg/mL). Further, in data set [2] (setting [6]), the “Inhibition of 3H-Gly uptake” value was “no inhibition”.
In the case of `CC(C)c1ccc(S(=O)(=O)Nc2ccc3nc(S(C)(=O)=O)sc3c2)cc1` [54F], the thermodynamic solubility in data set [1] (aqueous buffer) is 56.1 ± 0.5 µM (≈ 23 µg/mL). Moreover, the “Inhibition of 3H-Gly uptake compared to control” value in data set [2] (50 µM compound, 11.1 nM 3H-Gly, 5 min, 37°C, 1% DMSO) is on record as “approximately 20%”. In addition, in data set [2], the “Inhibition of 3H-Gly uptake (overall finding, in words)” value is recorded as “significant, but small, inhibition”.
Consider `COC(=O)c1ccccc1NC(=O)Nc1c(-c2ccncc2)[nH]c2ccc(Cl)cc12` [55B], for which the values for the solubility (thermodynamic) in data set [1] (aqueous buffer) and in data set [1] were 13.2 ± 1.6 µM (≈ 5.56 µg/mL) and 13.3 µM (≈ 5.6 µg/mL), respectively. Besides, the “Inhibition of 3H-Gly uptake” value in data set [2] (setting [6]) was “no inhibition”.
`Cc1nc(-n2nc(C)c(Cc3ccc(Cl)cc3)c2C)sc1C(=O)N1CCN(C)CC1` [57B] returned a solubility (thermodynamic) in data set [1] (aqueous buffer) of 27.5 ± 1 µM (≈ 12.2 µg/mL). The “Inhibition of 3H-Gly uptake” value in data set [2] (setting [6]) is given as “no inhibition”.
As to `NCC(=O)O` [Gly, glycine], the Km in data set [3] is 750 ± 160 µM.
Regarding `N=C(N)NCCC[C@H](N)C(=O)O` [L-Arg, L-arginine hydrochloride], the “Effect on 3H-Gly uptake” value in data set [2] (20 mM, 11.1 nM 3H-Gly, 5 min) is listed as “did not affect the uptake significantly”.
Regarding `Cc1ccc(S(=O)(=O)N(C)c2ccsc2C(=O)NCc2ccccc2C(F)(F)F)cc1` [MMTC, 3-(N-methyl (4-methylphenyl)sulfonamido)-N-(2-trifluoromethylbenzyl)thiophene-2-carboxamide], the solubility kinetic in data set [4] (aqueous buffer, kinetic from dmso stock, within 15 min, remained stable for at least 45 min, read-out: MMTC concentration after dilution of DMSO stock to 10 µM in HBSS*) was roughly 2.5 µM (≈ 1.17 µg/mL); in data set [4] (pH 7.4, HBSS*, during the course of the uptake study, read-out: Kinetic solubility) it was 2.5 to 10 µM (≈ 1.17 to 4.69 µg/mL). Besides, the thermodynamic solubility in data set [1] (aqueous buffer) was less than 1.8 µM. In addition, in data set [2] (1 µM MMTC, substrate concentration 100 µM Gly, Supplementary Figure S1, n = 1), the “Inhibition of Gly uptake” value was “does not inhibit”. Moreover, the “Inhibition of SNAT2-mediated 3H-Gly uptake” value in data set [2] (1 µM compound, 11.1 nM 3H-Gly, 5 min, 37°C, 1% DMSO) is listed as “no inhibition”; in data set [2] (5 µM compound, 11.1 nM 3H-Gly, 5 min, 37°C, 1% DMSO) it was “no inhibition”. The “Inhibition of 3H-Gly uptake (overall finding, in words)” value in data set [2] is reported as “did not inhibit”.
`O=C(O)[C@@H]1CCCN1` [Pro]: the Km in data set [3] is 780 ± 100 µM.
With `Cc1cccc(COc2ccccc2CN(CC[C@H](N)C(=O)O)Cc2ccccc2OCc2cccc(C)c2)c1` [V-9302], the IC50 in data set [5] is 7 to 10 µM.
For the molecule `C[N+](C)(C)CC(=O)O` [betaine], the “Inhibition of Gly uptake (in words)” value in data set [2] (50 mM betaine, 20 mM Gln, Figure 1) was “almost completely inhibits”. Also, in data set [2] (50 mM, 11.1 nM 3H-Gly, 5 min), the “Inhibition of 3H-Gly uptake” value is reported as “around 86%”.

A word on the thermodynamic solubility: it is solubility found after equilibrating the solid with the medium. Broadly, the Km is the concentration of substrate that gives half-maximal velocity. For orientation: IC50 means the concentration needed to halve the response being measured.

The values above are taken from article PMC10794626, “Investigations of potential non-amino acid SNAT2 inhibitors” (Frontiers in Pharmacology, 2024).
